Test results as given in patent US11130756B2, “[1,2,4]Triazolo[4,3-A]pyridinyl substituted indole compounds” (BRISTOL-MYERS SQUIBB COMPANY, priority 2017, dated 2021).

Tests used:
Format in all cases: cell-based
human TLR8 = biological target: T1, human TLR8 (Homo sapiens, UniProt Q9NR97); assay: TLR8 inhibition reporter assay (HEK-Blue, SEAP); details: HEK-Blue cells overexpressing human TLR8, R848 15.9 μM, 22 hour incubation
T1 construct: host or cells: HEK-Blue cells
T1 sequence (Q9NR97 27-1041): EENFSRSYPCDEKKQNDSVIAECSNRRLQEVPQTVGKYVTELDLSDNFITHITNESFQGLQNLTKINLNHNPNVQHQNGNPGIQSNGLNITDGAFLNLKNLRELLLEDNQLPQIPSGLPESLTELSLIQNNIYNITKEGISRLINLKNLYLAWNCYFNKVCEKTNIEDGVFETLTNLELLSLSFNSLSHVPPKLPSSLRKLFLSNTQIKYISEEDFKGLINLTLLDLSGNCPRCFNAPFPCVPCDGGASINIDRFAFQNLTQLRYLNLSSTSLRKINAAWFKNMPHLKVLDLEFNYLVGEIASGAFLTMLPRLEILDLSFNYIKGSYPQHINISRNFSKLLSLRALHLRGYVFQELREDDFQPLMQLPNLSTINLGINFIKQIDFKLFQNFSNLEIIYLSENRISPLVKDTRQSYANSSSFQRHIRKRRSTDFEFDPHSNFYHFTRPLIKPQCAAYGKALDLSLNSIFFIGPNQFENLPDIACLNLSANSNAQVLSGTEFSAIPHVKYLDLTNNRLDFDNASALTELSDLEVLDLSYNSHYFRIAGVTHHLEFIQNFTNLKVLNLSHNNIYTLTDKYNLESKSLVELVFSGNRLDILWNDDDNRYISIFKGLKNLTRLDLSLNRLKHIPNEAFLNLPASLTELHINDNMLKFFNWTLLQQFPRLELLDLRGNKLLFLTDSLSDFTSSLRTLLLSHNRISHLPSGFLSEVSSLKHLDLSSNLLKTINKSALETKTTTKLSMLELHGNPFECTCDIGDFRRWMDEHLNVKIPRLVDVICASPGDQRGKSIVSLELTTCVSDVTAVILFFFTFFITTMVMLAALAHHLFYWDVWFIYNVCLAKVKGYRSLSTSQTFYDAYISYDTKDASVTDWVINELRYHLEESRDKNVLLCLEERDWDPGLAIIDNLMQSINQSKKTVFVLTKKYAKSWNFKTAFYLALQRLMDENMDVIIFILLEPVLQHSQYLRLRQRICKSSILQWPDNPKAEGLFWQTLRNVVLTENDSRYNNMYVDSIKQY
How it was run: (§1)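 HEK-Blue cells overexpressing human TLR7, TLR8 or TLR9 carry a SEAP reporter driven by NF-κB/AP-1 sites. Compounds (0.05 nM–50 μM) were preincubated 30 min at room temperature, then cells were stimulated with gardiquimod 7.5 μM (TLR7), R848 15.9 μM (TLR8) or ODN2006 5 nM (TLR9) for 22 h at 37 °C.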

human TLR9 = biological target: T2, human TLR9 (Homo sapiens, UniProt Q9NR96); assay: TLR9 inhibition reporter assay (HEK-Blue, SEAP); details: HEK-Blue cells overexpressing human TLR9, ODN2006 5 nM, 22 hour incubation
T2 construct: host or cells: HEK-Blue cells
T2 sequence (Q9NR96 26-1032): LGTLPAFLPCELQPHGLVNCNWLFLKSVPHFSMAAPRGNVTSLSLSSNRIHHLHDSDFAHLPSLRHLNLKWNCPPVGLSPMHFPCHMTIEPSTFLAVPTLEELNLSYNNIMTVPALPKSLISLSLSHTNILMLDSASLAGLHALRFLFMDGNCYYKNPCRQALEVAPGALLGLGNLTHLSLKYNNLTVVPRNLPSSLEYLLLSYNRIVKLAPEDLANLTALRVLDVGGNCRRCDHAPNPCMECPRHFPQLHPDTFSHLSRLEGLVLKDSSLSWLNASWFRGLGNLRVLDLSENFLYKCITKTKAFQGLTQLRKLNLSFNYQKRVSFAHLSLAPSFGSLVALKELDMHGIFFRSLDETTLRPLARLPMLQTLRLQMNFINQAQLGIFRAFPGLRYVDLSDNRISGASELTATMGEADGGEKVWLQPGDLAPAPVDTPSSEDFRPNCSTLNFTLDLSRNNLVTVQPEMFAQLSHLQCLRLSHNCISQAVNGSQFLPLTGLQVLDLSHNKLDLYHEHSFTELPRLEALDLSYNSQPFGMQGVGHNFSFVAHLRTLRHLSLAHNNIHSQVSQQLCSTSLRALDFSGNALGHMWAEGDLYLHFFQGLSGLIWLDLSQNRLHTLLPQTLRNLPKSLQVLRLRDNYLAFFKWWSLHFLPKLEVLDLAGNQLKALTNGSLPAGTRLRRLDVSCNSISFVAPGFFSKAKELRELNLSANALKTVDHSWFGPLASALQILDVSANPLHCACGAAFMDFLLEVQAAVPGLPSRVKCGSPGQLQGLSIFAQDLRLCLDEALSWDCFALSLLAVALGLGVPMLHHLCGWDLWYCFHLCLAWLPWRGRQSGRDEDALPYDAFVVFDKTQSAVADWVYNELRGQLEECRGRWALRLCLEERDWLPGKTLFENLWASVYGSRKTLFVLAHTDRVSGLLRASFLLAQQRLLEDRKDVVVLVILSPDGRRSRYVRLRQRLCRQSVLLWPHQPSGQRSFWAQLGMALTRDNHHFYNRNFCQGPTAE
How it was run: as §1

human TLR7 = biological target: T3, human TLR7 (Homo sapiens, UniProt Q9NYK1); assay: TLR7 inhibition reporter assay (HEK-Blue, SEAP); details: HEK-Blue cells overexpressing human TLR7, gardiquimod 7.5 μM, 22 hour incubation
T3 construct: host or cells: HEK-Blue cells
T3 sequence (Q9NYK1 27-1049): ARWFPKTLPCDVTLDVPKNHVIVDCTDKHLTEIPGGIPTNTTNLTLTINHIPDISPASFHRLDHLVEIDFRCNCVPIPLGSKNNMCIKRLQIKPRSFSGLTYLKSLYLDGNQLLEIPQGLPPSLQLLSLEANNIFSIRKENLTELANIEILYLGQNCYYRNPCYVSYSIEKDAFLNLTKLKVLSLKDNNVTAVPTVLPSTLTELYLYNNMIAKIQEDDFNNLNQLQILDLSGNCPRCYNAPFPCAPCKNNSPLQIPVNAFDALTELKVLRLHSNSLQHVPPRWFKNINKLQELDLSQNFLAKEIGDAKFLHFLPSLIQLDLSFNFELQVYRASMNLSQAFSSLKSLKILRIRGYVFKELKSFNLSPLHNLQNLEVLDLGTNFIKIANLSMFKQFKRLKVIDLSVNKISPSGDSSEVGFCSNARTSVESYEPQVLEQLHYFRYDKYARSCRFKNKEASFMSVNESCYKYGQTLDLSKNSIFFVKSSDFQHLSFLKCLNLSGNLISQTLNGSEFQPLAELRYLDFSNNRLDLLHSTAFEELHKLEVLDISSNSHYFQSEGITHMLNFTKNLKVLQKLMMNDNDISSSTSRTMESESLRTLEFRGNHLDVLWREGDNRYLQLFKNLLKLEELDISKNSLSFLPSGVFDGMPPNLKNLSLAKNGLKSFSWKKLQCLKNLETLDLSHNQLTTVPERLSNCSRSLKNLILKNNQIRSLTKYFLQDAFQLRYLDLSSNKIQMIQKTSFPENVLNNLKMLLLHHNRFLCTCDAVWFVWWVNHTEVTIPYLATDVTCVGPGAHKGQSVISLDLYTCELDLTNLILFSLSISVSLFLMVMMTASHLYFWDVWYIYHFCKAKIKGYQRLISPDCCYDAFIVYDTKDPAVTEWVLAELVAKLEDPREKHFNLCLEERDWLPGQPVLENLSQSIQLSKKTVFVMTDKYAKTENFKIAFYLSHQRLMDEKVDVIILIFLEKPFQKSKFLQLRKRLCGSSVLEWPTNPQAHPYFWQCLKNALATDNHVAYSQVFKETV
How it was run: as §1

## Cc1c(-c2[nH]c3ccc(C4CC(C)N(C5COC5)C(C)C4)cc3c2C(C)C)cn2cnnc2c1C (stereo not drawn) [Example 115, 6-(5-(2,6-dimethyl-1-(oxetan-3-yl)piperidin-4-yl)-3-isopropyl-1H-indol-2-yl)-7,8-dimethyl-[1,2,4]triazolo[4,3-a]pyridine]
Human TLR8
  IC50: 29.7 nM
Human TLR9
  IC50: 14600 nM
Human TLR7
  IC50: 5.6 nM
